Data on 33 molecules can be found in US9422238B2, “ICMT inhibitors” (National University of Singapore, priority 2012, dated 2016).

Like-named read-outs stand apart in the source and are kept apart here. Bounds are passed on as bounds.

For test [1], the system named is MDA-MB-231 human breast cells. Put plainly: Antiproliferative activity / cell viability (MTS, 72 h).
For test [2], the system named is PC3 Prostrate cancer cells. The test is described as above. The test is classed as cell-based, human.
Experimental: The relative number of the live cells was determined using the CellTiter® 96 AQueous One Solution Cell Proliferation Assay (Promega). Determinations were made in duplicates or triplicates.
In test [3] the target is T1, Isoprenylcysteine carboxyl methyltransferase (Icmt) (Homo sapiens, UniProt O60725).
T1 construct: made in house; host or cells: Sf9 (Spodoptera frugiperda) insect cells; membrane preparation provided by Prof PJ Casey (Duke University / Duke-NUS)
Put plainly: Icmt inhibition, scintillation proximity assay with BFC and [3H]SAM. The test is classed as biochemical. The note with it: for IC50: Table 3, mean of two or more determinations (SD), read-out: IC50 Icmt. The procedure:
Isoprenylcysteine carboxyl methyltransferase (Icmt) was provided by Prof PJ Casey of Duke University, NC. S-Adenosylmethionine (SAM), magnesium chloride Hexahydrate (MgCl2), tartrazine, 4-(2-hydroxyethyl)-1-piperazineethanesulfonic acid (HEPES), dimethyl sulfoxide (DMSO) and dithiotreitol (DTT) were purchased from Sigma (Mo, USA). [^3H] S-Adenosylmethionine, [^3H] Biotin and Streptavidin PVT SPA Beads were purchased from PerkinElmer (Waltham, Mass.). Assays were performed in black small volume 384 well microtitre plates from PerkinElmer.
Stocks of Icmt membrane protein (30 μg/μL) stored at −80° C. were thawed at 37° C. and placed on ice. The Icmt membrane protein was diluted in assay buffer (70 mM HEPES, 100 mM NaCl, 5 mM Mg Cl2 and 3 mM DTT, pH 7.5) to a 0.03 μg/μL working concentration and added to the wells of a microtitre plate (5 μl/well). To each wells 20 μl of the reaction buffer was added. The reaction was initiated with the addition of 5 μL of substrate solution containing BFC (6 μM), SAM (3 μM) and 30 μCi/mL [^3H] SAM (all of these reagents were stored at −20° C., SAM reagents thawed on ice, BFC thawed at RT). The plate was incubated at 37° C. for 30 minutes. The reaction was stopped with the addition of 15 μL of stop solution containing SAM (150 μM) and Streptavidin SPA beads (20 mg/mL). Following overnight incubation at ambient temperature radioactivity was counted on a Microbeta Trilux™ (Perkin Elmer, Turku, Finland).
Sf9 (Spodoptera frugiperda ovarian) membranes containing recombinant Icmt were provided by Prof PJ Casey (Duke University, NC and Duke-NUS Graduate Medical School). S-Adenosylmethionine (SAM), magnesium chloride hexahydrate, tartrazine, 4-(2-hydroxyethyl)-1-piperazineethanesulfonic acid (HEPES) and dithiotreitol (DTT) were purchased from Sigma (Mo, USA). [^3H] S-Adenosylmethionine, [^3H] biotin and streptavidin PVT SPA Beads were purchased from PerkinElmer (Waltham, Mass.). Biotinylated farnesylcysteine was synthesized as described in an earlier report. Assays were performed in black 384-well microtitre plates from PerkinElmer.
A vial of Icmt membrane protein (30 μg/μL) stored at −80° C. was thawed at 37° C. and placed on ice. The protein was diluted in assay buffer (70 mM HEPES, 100 mM NaCl, 5 mM MgCl2, 3 mM DTT, pH 7.5) to 0.03 μg/μL and aliquots were added to each well (5 μL/well), followed by 20 μL of the assay buffer. The reaction was initiated by adding 5 μL of a solution containing biotinylated BFC (6 μM), SAM (3 μM) and 30 μCi/mL [^3H] SAM. These reagents were stored at −20° C. and thawed on ice (SAM, [^3H] SAM) or at room temperature (BFC). The plate was incubated at 37° C. for 30 minutes after which the reaction was quenched by adding 15 μL of a solution comprising SAM (150 μM) and streptavidin SPA beads (20 mg/mL). After overnight incubation at ambient temperature, radioactivity was counted (Microbeta Trilux™, Perkin Elmer, Turku, Finland). The degree of inhibition was assessed from the radioactivity obtained in presence of test compound compared to that obtained from the control sample […]. Two independent determinations were made for each test compound.

Setting [4] is: Homo sapiens, MDA-MB-231, 72 h, read-out: IC50MDA-MB-231 (μM).
The mark [5] stands for this setting: Homo sapiens, MDA-MB-231, read-out: IC50 (μM) MDA-MB231.
Where [6] appears, read: Homo sapiens, PC-3M, Table 3, 72 h, mean (SD), read-out: IC50 PC3.
Where [7] appears, read: Homo sapiens, Table 5, read-out: IC50 (μM) PC 3.
The mark [8] stands for this setting: read-out: IC50MDA-MB-231, Table 3, 72 h, mean (SD).
Where [9] appears, read: Table 3, 72 h, mean (SD), read-out: IC50 PC3.

T1 sequence (O60725 whole entry, species assumed): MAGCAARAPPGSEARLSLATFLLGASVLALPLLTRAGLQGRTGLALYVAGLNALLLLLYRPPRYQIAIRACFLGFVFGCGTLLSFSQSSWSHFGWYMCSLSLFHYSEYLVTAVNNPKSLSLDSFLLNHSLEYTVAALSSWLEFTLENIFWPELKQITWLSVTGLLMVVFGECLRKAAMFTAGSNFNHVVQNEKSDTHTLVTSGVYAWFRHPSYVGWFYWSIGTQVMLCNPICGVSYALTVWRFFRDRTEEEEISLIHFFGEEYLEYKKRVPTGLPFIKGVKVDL

For the molecule `CCCCCCCCn1c2c(c3cc(-c4cccc(C)c4)ccc31)CN(C(C)C)CC2` [Compound 260, 2-isopropyl-8-m-tolyl-5-n-octyl-1,2,3,4-tetrahydropyrido[4,3-b]indoles], the IC50 in test [1] (setting [4]) turned out to be 7.38 µM; in test [1] (setting [5]), 7.38 ± 0.48 µM; in test [2] (setting [6]), 9.69 µM; in test [2] (setting [7]), 9.69 ± 1.84 µM; in test [3] it was 8.3 µM.
Consider `CCCCCCCCn1c2c(c3cc(-c4cnc(N)nc4)ccc31)CNCC2` [Compound 309, 8-(2′-amino-pyrimidin-5-yl)-5-n-octyl-1,2,3,4-tetrahydropyrido[4,3-b]indole], for which the IC50 in test [1] (setting [4]) came out at 2.72 µM; in test [2] (setting [6]), 4.44 µM.
As to `CCCCCCCCn1cc(CN(CC)CC)c2cc(-c3cnccc3F)ccc21` [Compound 8-8, Diethyl-[5(4-Fluoro-pyrdin-3yl)-1-octyl-1H-indol-3ylmethyl]-amine], the IC50 in test [1] (setting [8]) is 5.14 µM; in test [2] (setting [9]), 5.88 µM; in test [3], 0.96 µM.
Consider `CCCCCCCCn1c2c(c3cc(F)ccc31)CN(Cc1ccc(O)cc1)CC2` [Compound 205, 8-fluoro-2-(4′-hydroxybenzyl)-5-n-octyl-1,2,3,4-tetrahydropyrido[4,3-b]indole], for which the IC50 stood at 10.5 µM in test [1] (setting [4]), 10.5 ± 0.08 µM in test [1] (setting [5]), 10.5 µM in test [2] (setting [6]) and 10.5 ± 0.28 µM in test [2] (setting [7]).
As for `CCCCCCCCn1c2c(c3cc(-c4cnc(N)nc4)ccc31)CN(CCO)CC2` [cpd 510], the IC50 was determined as 3.42 ± 0.72 µM in test [1] (setting [5]) and 3.97 ± 0.42 µM in test [2] (setting [7]).
For the molecule `CCCCCCCCn1c2c(c3cc(-c4cccc(C)c4)ccc31)CN(Cc1ccc(O)cc1)CC2` [Compound 240, 2-(4′-hydroxybenzyl)-8-m-tolyl-5-n-octyl-1,2,3,4-tetrahydropyrido[4,3-b]indoles], the IC50 in test [1] (setting [8]) was determined as 14.8 µM; in test [2] (setting [9]), 10.2 µM.
As for `CCCCCCCCn1cc(CN(CC)CC)c2cc(-c3cccc(O)c3)ccc21` [Compound 8-21, 3-(3-Diethylaminomethyl-1-octyl-1H-indol-5-yl)-phenol], the results for the IC50 in test [1] (setting [4]), in test [2] (setting [6]) and in test [3] were 14.8 µM, 17.4 µM and 5.43 µM, respectively.
In the case of `CCCCCCCCn1cc(CC(N)=O)c2cc(-c3cnc(N)nc3)ccc21` [cpd 512], the IC50 in test [1] (setting [5]) and in test [2] (setting [7]) was above 50 µM in each case.
For `CCCCCCCCn1c2c(c3cc(F)ccc31)CN(C)CC2` [Compound 199, 8-fluoro-2-methyl-5-n-octyl-1,2,3,4-tetrahydropyrido[4,3-b]indole], the IC50 in test [1] (setting [4]) was determined as 19.2 µM; in test [2] (setting [6]), 15.5 µM.
Turning to `CCCCCCCCn1c2c(c3cc(-c4cnc(N)nc4)ccc31)CN(C(C)C)CC2` [cpd 474], the IC50 amounted to 9.17 ± 0.54 µM in test [1] (setting [5]) and 9.32 ± 0.65 µM in test [2] (setting [7]).
For the molecule `CCCCCCCCn1c2c(c3cc(-c4ccc(S(C)(=O)=O)cc4)ccc31)CN(C)CC2` [Compound 306, 2-methyl-8-(4′-(methylsulfonyl)phenyl)-5-n-octyl-1,2,3,4-tetrahydropyrido[4,3-b]indole], the IC50 in test [1] (setting [4]) amounted to 4.6 µM; in test [2] (setting [6]) it was 5.38 µM.
As for `CCCCCCCCn1c2c(c3cc(-c4cnc(N)nc4)ccc31)CN(CC)CC2` [cpd 490], in test [1] (setting [5]), the IC50 came out at 5.85 µM.
For the molecule `CCCCCCCCn1c2c(c3cc(-c4cccc(C)c4)ccc31)CN(C(=O)OCC)CC2` [cpd 481], the IC50 in test [1] (setting [5]) came out at 25.9 µM; in test [2] (setting [7]), 30.1 µM.
Turning to `CCCCCCCCn1cc(CN(CC)CC)c2cc(-c3cccc(OC(F)(F)F)c3)ccc21` [Compound 8-6], the IC50 in test [1] (setting [8]) amounted to 7.17 µM; in test [2] (setting [9]) it was 11.2 µM.
`CCCCCCCCn1cc(CN(CC)CC)c2cc(-c3ccc(C#N)cc3)ccc21` [Compound 8-20, 4-(3-Diethylaminomethyl-1-octyl-1H-indol-5-yl)-benzonitrile]: the IC50 in test [1] (setting [4]) came to 7.72 µM; in test [2] (setting [6]), 6.19 µM; in test [3], 2.45 µM.
Turning to `CCCCCCCCn1cc(CN(CC)CC)c2cc(-c3ccccc3C(F)(F)F)ccc21` [Compound 8-4], the IC50 is 6.69 µM in test [1] (setting [4]), 9.66 µM in test [2] (setting [6]) and 1.28 µM in test [3].
On to `CCCCCCCCn1c2c(c3cc(-c4cccc(C)c4)ccc31)CN(C(N)=O)CC2` [cpd 321], for which the IC50 in test [2] (setting [7]) came to 10.5 ± 3.08 µM.
In the case of `CCCCCCCCn1c2c(c3cc(-c4cnc(N)nc4)ccc31)CN(C(=O)OCC)CC2` [cpd 480], the IC50 came out at 17 µM in test [1] (setting [5]) and 21.3 µM in test [2] (setting [7]).
In the same order, the values of `CCCCCCCCn1cc(CC(N)=O)c2cc(-c3ccnc(F)c3)ccc21` [cpd 513] are 26.1 ± 0.41 µM and 25.6 ± 3.48 µM.
As for `CCCCCCCCn1c2c(c3cc(-c4ccc(S(C)(=O)=O)cc4)ccc31)CN(C(N)=O)CC2` [cpd 324], in test [2] (setting [7]), the IC50 came to 8.88 ± 0.62 µM.
For the molecule `CC(C)=CCn1c2c(c3cc(-c4cccc(C)c4)ccc31)CN(Cc1ccc(O)cc1)CC2` [Compound 300, 2-(4′-hydroxybenzyl)-5-isoprenyl-8-m-tolyl-1,2,3,4-tetrahydropyrido[4,3-b]indoles], the IC50 came out at 9.38 µM in test [1] (setting [4]), 9.38 ± 0.92 µM in test [1] (setting [5]), 13.3 µM in test [2] (setting [6]) and 13.3 ± 5.7 µM in test [2] (setting [7]).
For `CCCCCCCCn1cc(CN(CC)CC)c2cc(-c3cnc(C#N)nc3)ccc21` [Compound 8-19, 5-(3-Diethylaminomethyl-1-octyl-1H-indol-5-yl)-pyrimidine-2-carbonitrile], the IC50 in test [1] (setting [4]) turned out to be 3.95 µM; in test [2] (setting [6]), 5.92 µM; in test [3] it was 2.26 µM.
Consider `CCCCCCCCn1cc(C(=O)C(N)=O)c2cc(-c3cccc(C)c3)ccc21` [cpd 273], for which the results for the IC50 in test [1] (setting [5]) and in test [2] (setting [7]) were above 50 µM and 16.7 ± 1.68 µM, respectively.
Consider `CCCCCCCCn1cc(CN(CC)CC)c2cc(-c3ccccc3F)ccc21` [Compound 8-2], for which the IC50 in test [3] was determined as 2.56 µM.
For the molecule `CCCCCCCCn1c2c(c3cc(-c4ccnc(F)c4)ccc31)CNCC2` [Compound 315, 8-(2′-fluoropyridin-4-yl)-5-n-octyl-1,2,3,4-tetrahydro-1H-pyrido[4,3-b]indole], the IC50 in test [1] (setting [8]) was 4.59 µM; in test [2] (setting [9]) it was 7.69 µM.
Consider `CCCCCCCCn1c2c(c3cc(-c4cnc(N)nc4)ccc31)CN(S(C)(=O)=O)CC2` [cpd 488], for which the IC50 in test [1] (setting [5]) turned out to be 27.4 µM.
`CCCCCCCCn1c2c(c3cc(-c4ccc(S(C)(=O)=O)cc4)ccc31)CNCC2` [Compound 314, 8-(4′-(methylsulfonyl)phenyl)-5-n-octyl-1,2,3,4-tetrahydropyrido[4,3-b]indole]: the figures for the IC50 in test [1] (setting [4]) and in test [2] (setting [6]) were 2.1 µM and 2.92 µM, respectively.
For the molecule `CCCCCCCCn1cc(CN(CC)CC)c2cc(-c3cccc(F)c3)ccc21` [Compound 8-3], the IC50 in test [3] is 1.61 µM.
`CCCCCCCCn1cc(CN(CC)CC)c2cc(-c3cccc(C(F)(F)F)c3)ccc21` [Compound 8-5]: in test [3], the IC50 was determined as 2.61 µM.
On to `CCCCCCCCn1c2c(c3cc(-c4cnc(N)nc4)ccc31)CN(C(N)=O)CC2` [cpd 319], for which the IC50 in test [2] (setting [7]) was found to be 9.43 ± 3.85 µM.
On to `CCCCCCCCn1c2c(c3cc(-c4cccc(C)c4)ccc31)CN(Cc1ccccc1)CC2` [cpd 214], for which the IC50 in test [1] (setting [5]) is 8.6 ± 1.68 µM; in test [2] (setting [7]), 10.9 ± 2.31 µM.
Turning to `CCCCCCCCn1c2c(c3cc(-c4ccnc(F)c4)ccc31)CN(C(N)=O)CC2` [cpd 323], in test [2] (setting [7]), the IC50 worked out at 10.2 ± 3.63 µM.
Regarding `CCCCCCCCn1c2c(c3cc(-c4cccc(C)c4)ccc31)CN(C)CC2` [Compound 235, 2-methyl-8-m-tolyl-5-n-octyl-1,2,3,4-tetrahydropyrido[4,3-b]indoles], the figures for the IC50 in test [1] (setting [4]), in test [2] (setting [6]) and in test [3] were 9.18 µM, 7.58 µM and 10.3 µM, respectively. In test [3] (ratio of IC50 Icmt), the “times less potent as an Icmt inhibitor than 8-1” value was around 5.
